Experimental data from patent US7939499B2, “Method for increasing cardiac mass and performance” (Trustees of Dartmouth College, priority 2005, dated 2011).
Marks after values point to notes of the source that are not given here. Where no end group is shown, it is not given here.

Tests used:
Assay type in all cases: in vivo, mouse
[1] = tested on: endothelial cells and cardiac myocytes; test: Immunocytochemical staining with anti-Ki67 antibody (proliferation); settings: after induction of PR39 expression
Source text: (§1) To gain further insight into the nature of the hypertrophy process, expression of myocyte hypertrophy markers was examined. […] These findings are consistent with an increase in endothelial cell mass, […] an increase in cardiac size, largely driven by myocyte hypertrophy accompanied by an induction of a typical hypertrophic response.

[2] = tested on: transgenic mice with myocardial-specific expression of PR39; test: Echocardiographic and pressure-volume loop analysis of myocardial function
Description: (§2) To monitor PR39 expression, β-galactosidase was expressed bicistronically.
To determine whether this endothelial-driven myocardial hypertrophy affected cardiac performance, echocardiographic and pressure-volume loop analysis of myocardial function was performed following induction of PR39 expression. In agreement with morphologic observations, heart expressing PR39 had somewhat larger left ventricular end-diastolic volume and end-diastolic diameter (Table 2). There was a significant enhancement of systolic performance as indicated by decreased left ventricle end-systolic volume and increases in the […], +dP/dT, maximal-generated left ventricle pressure and cardiac output (Table 2). Unexpectedly, there was also a significant improvement in diastolic function as indicated by reduced tau and −dP/dt (Table 2).
To evaluate the robustness of the observed increase in myocardial size and functional improvement, PR39 expression was shut off six weeks after its induction and the mice were re-examined three weeks later. Both the increase in the myocardial mass and improvements in the systolic and diastolic function were maintained at that time.
(§3) Full-length porcine PR39 cDNA was inserted into a tetracycline-responsive vector system and a tetracycline transactivator was placed under transcriptional control of an α-myosin heavy chain promoter. The resulting tetracycline-responsive system was microinjected into fertilized mouse eggs. PCR analysis of genomic DNA from mouse tail tissue confirmed integration into the mouse genome. Independent transgenic lines were established and used for the analysis disclosed herein.

[3] = tested on: transgenic mice with myocardial-specific expression of PR39; test: Heart size, myocardial mass and myocyte cross-sectional area after induction of PR39 expression
Source text: as §2
Six weeks after induction of PR39 expression, a large increase in the heart size was observed that was attributable to increased ventricular wall thickness and a mild increase in the left ventricle chamber size.
as §3

[4] = tested on: transgenic mice with myocardial-specific expression of PR39; test: Endothelial cell mass (I131-labeled anti-PECAM antibody perfusion) and direct capillary counting in PR39 transgenic mice
Source text: as §2
Three weeks after induction of PR39 expression in 6-8 week-old mice, a significant increase in the endothelial cell mass was observed as determined by in vivo perfusion with an I^131-labeled anti-PECAM antibody and direct capillary counting (Table 1).
as §3

[5] = tested on: ANF, βMHC and skeletal α-actin gene expression; test: Expression of myocyte hypertrophy markers; settings: 6 weeks after PR39 expression induction (not at 3 weeks)
Source text: as §1

[6] = six weeks following induction of PR39 expression
[7] = six weeks induction of PR39 expression followed by 3 weeks repression
[8] = six weeks after induction of PR39 expression

“PR39: Angiogenic proline/arginine-rich peptide; full-length porcine PR39 cDNA expressed myocardial-specifically in tetracycline-regulated transgenic mice (mature peptide SEQ ID NO:3) (RRRPRPPYLPRPRPPPFFPPRLPPRIPPGFPPRFPPRFP-NH2; listed as Sus scrofa)” was tested, and the “Proliferation of endothelial cells between myocyte bundles (anti-Ki67)” value [1] was “increased proliferation”, the “Proliferation of cardiac myocytes (anti-Ki67)” value ([1]; multiple sections) was “no proliferation” and the “Increase in myocardial mass and improvements in systolic and diastolic function after shut-off” value ([2]; PR39 expression shut off six weeks after induction, re-examined three weeks later) was “maintained”. For the same substance, the “Left Ventricle Mass” value [2, 6] was 74 ± 1.1^a mg, the “Left Ventricle internal dimension systolic” value [2, 6] was 2.28 ± 0.20^c mm and the Cardiac output [2, 7] was 9046 ± 239^a μL/minute. The Ejection fraction [2, 7] was 85.06 ± 0.76^a %, the End diastolic pressure [2, 7] was 7.17 ± 0.17^a mmHg and the End diastolic volume [2, 7] was 18.78 ± 0.31^a μL. The End systolic pressure [2, 7] was 70.49 ± 0.99^b mmHg, the End systolic volume [2, 7] was 3.26 ± 0.15^a μL and the “Maximum dP/dt” value [2, 7] was 8809 ± 167^a mmHg/second. The Maximum pressure [2, 7] was 92.26 ± 0.54^a mmHg, the Maximum volume [2, 7] was 20.15 ± 0.29^a μL and the “Minimum dP/dt” value [2, 7] was −7503 ± 123^a mmHg/second. For the same substance, the Minimum pressure [2, 7] was 3.79 ± 0.15^a mmHg, the Minimum volume [2, 7] was 2.86 ± 0.13^a μL and the Stroke volume [2, 7] was 17.29 ± 0.32^a μL. The Tau-w [2, 7] was 6.0 ± 0.1^a msec, the “Increase in myocardial mass” value ([3]; cardiac-specific overexpression of PR39) was 50% and the Heart size [3, 8] was 0.15±0.01 gram. For the same substance, the “Myocyte area increase (cross-sectional area of enzymatically dispersed cardiac myocytes)” value [3, 8] was 30%, the Heart enlargement ([3]; six weeks after induction of PR39 expression, vs non-transgenic mice) was 35% and the “Heart size after repression of PR39 expression” value ([3]; six weeks induction, then 3 weeks repression of PR39 expression) was “remained unchanged”. For the same substance, the “Capillary density per gram of myocardial tissue” value [4, 8] was “returned to values seen in control mice”, the “Capillary Density (Capillary/50 μm^2)” value ([4]; three weeks after induction of PR39 expression in 6-8 week-old mice) was 5.90 ± 0.12 Capillary/50 μm^2 and the “Anti-PECAM (μg antibody/gram tissue)” value ([4]; three weeks after induction of PR39 expression in 6-8 week-old mice, endothelial cell mass) was 0.52 ± 0.07 μg antibody/gram tissue. For the same substance, the “ANF, βMHC and skeletal α-actin gene expression” value [5] was “marked increase”.
